Test results: ChEMBL document CHEMBL3352810, “Synthesis and evaluation of novel alkannin and shikonin oxime derivatives as potent antitumor agents” (Bioorg Med Chem Lett, 2014); call rule not given here

How the values were obtained:
MCF7 [1] = test: Cytotoxicity against human MCF7 cells by MTT assay; format: functional, cell-based
K562 = test: Cytotoxicity against human K562 cells by MTT assay; format: functional, cell-based
DU-145 = test: Cytotoxicity against human DU145 cells by MTT assay; format: functional, cell-based
[2] = Cytotoxicity against human skin fibroblast cells by MTT assay; format: cell-based
[3] = Alkylation of the compound assessed as Michael addition after 15 mins; format: physicochemical
[4] = Alkylation of the compound assessed as bioreductive alkylation after 15 mins; format: physicochemical
MCF7 [5] = test: Induction of ROS level in human MCF7 cells by flow cytometry relative to control; format: functional

| Structure (SMILES) | IC50 (MCF7 [1]) [µM] | IC50 (K562) [µM] | IC50 (DU-145) [µM] | IC50 [2] [µM] | Activity [3] | Activity [4] | Activity (MCF7 [5]) [%] |
| --- | --- | --- | --- | --- | --- | --- | --- |
| CC(C)=CC[C@H](O)C1=CC(=O)c2c(O)ccc(O)c2C1=O [ALKANNIN] | 2.4 | 1.3 | 19.9 | 1.5 |  |  |  |
| CC(C)=CC[C@@H](O)C1=CC(=O)c2c(O)ccc(O)c2C1=O [SHIKONIN] | 1.8 | 0.7 | 16 | 1.2 |  |  |  |
| CC(C)=CC[C@@H](OC(=O)C=C(C)C)C1=CC(=O)c2c(O)ccc(O)c2C1=O [DIMETHYLACRYLSHIKONIN] |  |  |  |  | Not Active | Not Active | 414.8 |
